{"source": "patent US6737383B1", "about": "“Herbicidal oxadiazolidines” (priority 1999, dated 2004)", "key": {"lambsquarters": {"tested_on": "lambsquarters", "test": "Test E lambsquarters", "format": "in vivo, Chenopodium album", "conditions": "Postemergence; for Plant response rating Lambsquarters: 0 to 100 scale", "summary_of_the_method": "(§1)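 For postemergence, application to 1- to 4-leaf plants growing in a 60:40 sandy loam–potting mix substrate. Formulation: non-phytotoxic solvent mixture plus surfactant. Untreated controls served as the reference for the visual rating after ~21–28 days.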"}, "windgrass": {"tested_on": "windgrass", "test": "Test E windgrass", "format": "in vivo, Apera spica-venti", "conditions": "Preemergence, Rate 125 g/ha; 0 to 100 scale (0 no effect, 100 complete control)"}, "pitted morningglory": {"tested_on": "pitted morningglory", "test": "Test D pitted morningglory", "format": "in vivo, Ipomoea lacunosa", "conditions": "Postemergence, 0 to 100 scale"}, "arrowleaf sida": {"tested_on": "arrowleaf sida", "test": "Test C postemergence arrowleaf sida", "format": "in vivo, Sida rhombifolia", "conditions": "0 to 100 scale, 0 no effect, 100 complete control", "summary_of_the_method": "(§2)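 Foliar postemergence treatment of greenhouse plants grown in 60:40 sandy loam:potting mix; compounds delivered in non-phytotoxic solvent with surfactant. Evaluation is visual, 0–100, after ~14–21 d.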"}, "wild oat": {"tested_on": "wild oat", "test": "Test E wild oat", "format": "in vivo, Avena fatua", "conditions": "Postemergence, 0 to 100 scale, 0 is no effect, 100 is complete control", "summary_of_the_method": "as §1"}, "field violet": {"tested_on": "field violet", "test": "Test E field violet", "format": "in vivo, Viola arvensis", "conditions": "Preemergence"}, "velvetleaf": {"tested_on": "velvetleaf", "test": "Test C postemergence velvetleaf", "format": "in vivo, Abutilon theophrasti", "conditions": "0 to 100 scale, 0 no effect, 100 complete control", "summary_of_the_method": "as §2"}, "common ragweed": {"tested_on": "common ragweed", "test": "Test D common ragweed", "format": "in vivo, Ambrosia elatior", "conditions": "Postemergence, 0 to 100 scale"}, "itchgrass": {"tested_on": "itchgrass", "test": "Test D itchgrass", "format": "in vivo, Rottboellia exaltata", "conditions": "Postemergence, 0 to 100 scale"}, "jointed goatgrass": {"tested_on": "jointed goatgrass", "test": "Test E jointed goatgrass", "format": "in vivo, Aegilops cylindrica", "conditions": "Preemergence"}, "tall mallow": {"tested_on": "tall mallow", "test": "Test D tall mallow", "format": "in vivo, Malva sylvestris", "conditions": "Postemergence, 0 to 100 scale"}, "winter barley": {"tested_on": "winter barley", "test": "Test E winter barley", "format": "in vivo, Hordeum vulgare", "conditions": "Postemergence; for Plant response rating, Barley (winter): 0 to 100 scale", "summary_of_the_method": "as §1"}, "black nightshade": {"tested_on": "black nightshade", "test": "Test E black nightshade", "format": "in vivo, Solanum nigra", "conditions": "Preemergence"}, "kochia": {"tested_on": "kochia", "test": "Test E kochia", "format": "in vivo, Kochia scoparia", "conditions": "Postemergence; for Plant response rating, Kochia: 0 to 100 scale", "summary_of_the_method": "as §1"}, "Italian ryegrass": {"tested_on": "Italian ryegrass", "test": "Test E Italian ryegrass", "format": "in vivo, Lolium multiflorum", "conditions": "Postemergence; for Plant response rating, I. Ryegrass: 0 to 100 scale", "summary_of_the_method": "as §1"}, "common groundsel": {"tested_on": "common groundsel", "test": "Test D common groundsel", "format": "in vivo, Senecio vulgaris", "conditions": "Postemergence, 0 to 100 scale"}, "annual bluegrass": {"tested_on": "annual bluegrass", "test": "Test E annual bluegrass", "format": "in vivo, Poa annua", "conditions": "Postemergence; for Plant response rating, Annual bluegras: 0 to 100 scale", "summary_of_the_method": "as §1"}, "green foxtail": {"tested_on": "green foxtail", "test": "Test E green foxtail", "format": "in vivo, Setaria viridis", "conditions": "Postemergence; for Plant response rating, Green foxtail: 0 to 100 scale", "summary_of_the_method": "as §1"}, "[1]": {"conditions": "Rate 125 g/ha, 0 is no effect, 100 is complete control"}, "[2]": {"conditions": "Rate 250 g/ha, 0 to 100 scale where 0 is no effect and 100 is complete control"}, "[3]": {"conditions": "Rate 500 g/ha, 0 is no effect, 100 is complete control"}, "[4]": {"conditions": "Rate 16 g/ha, 0 no injury, 100 complete control"}, "[5]": {"conditions": "Rate 32 g/ha, 0 no injury, 100 complete control"}, "[6]": {"conditions": "Rate 64 g/ha, 0 no injury, 100 complete control"}, "[7]": {"conditions": "Rate 125 g/ha, 0 no injury, 100 complete control"}, "[8]": {"conditions": "Rate 125 g/ha, 0 to 100 scale (0 no effect, 100 complete control)"}, "[9]": {"conditions": "Rate 500 g/ha, 0 to 100 scale where 0 is no effect and 100 is complete control"}}}
{"smiles": "CC(C)N(C(=O)n1oc(=O)n(C2CC2)c1=O)c1ccc(F)cc1", "note": "[Compound 242]", "values": [{"measurement": "Plant response rating Lambsquarters", "setting": "lambsquarters; Rate 62 g/ha", "value": 10}, {"measurement": "Plant response rating Lambsquarters", "setting": "lambsquarters; [1]", "value": 0}, {"measurement": "Lambsquarters plant response rating", "setting": "lambsquarters; [2]", "value": 0}, {"measurement": "Plant response rating Lambsquarters", "setting": "lambsquarters; [3]", "value": 0}, {"measurement": "Plant response rating, Windgrass", "setting": "windgrass", "value": 100}, {"measurement": "Plant response rating, P. morninglory", "setting": "pitted morningglory; [4]", "value": 0}, {"measurement": "Plant response rating, P. morninglory", "setting": "pitted morningglory; [5]", "value": 0}, {"measurement": "Plant response rating, P. morninglory", "setting": "pitted morningglory; [6]", "value": 0}, {"measurement": "Plant response rating, P. morninglory", "setting": "pitted morningglory; [7]", "value": 0}, {"measurement": "Plant response rating, P. morninglory", "setting": "pitted morningglory; Rate 250 g/ha", "value": 0}, {"measurement": "Plant response rating Arrowleaf sida", "setting": "arrowleaf sida; Rate 140 g/ha", "value": 10}, {"measurement": "Plant response rating Arrowleaf sida", "setting": "arrowleaf sida; Rate 280 g/ha", "value": 30}, {"measurement": "Plant response rating Arrowleaf sida", "setting": "arrowleaf sida; Rate 560 g/ha", "value": 70}, {"measurement": "Plant response rating Arrowleaf sida", "setting": "arrowleaf sida; Rate 1120 g/ha", "value": 90}, {"measurement": "Plant response rating, Wild oat", "setting": "wild oat; Rate 125 g/ha", "value": 0}, {"measurement": "Plant response rating, Wild oat", "setting": "wild oat; Rate 500 g/ha", "value": 20}, {"measurement": "Plant response rating, Field violet", "setting": "field violet; [8]", "value": 50}, {"measurement": "Field violet plant response rating (0 to 100 scale)", "setting": "field violet; Rate 250 g/ha", "value": 65}, {"measurement": "Plant response rating, Field violet", "setting": "field violet; [9]", "value": 100}, {"measurement": "Plant response rating, Velvetleaf", "setting": "velvetleaf; Rate 140 g/ha", "value": 0}, {"measurement": "Plant response rating, Velvetleaf", "setting": "velvetleaf; Rate 280 g/ha", "value": 0}, {"measurement": "Plant response rating, Velvetleaf", "setting": "velvetleaf; Rate 560 g/ha", "value": 40}, {"measurement": "Plant response rating, Velvetleaf", "setting": "velvetleaf; Rate 1120 g/ha", "value": 60}, {"measurement": "Plant response rating, C. ragweed", "setting": "common ragweed; [4]", "value": 50}, {"measurement": "Plant response rating, C. ragweed", "setting": "common ragweed; [5]", "value": 30}, {"measurement": "Plant response rating, C. ragweed", "setting": "common ragweed; [6]", "value": 30}, {"measurement": "Plant response rating, C. ragweed", "setting": "common ragweed; [7]", "value": 90}, {"measurement": "Plant response rating, C. ragweed", "setting": "common ragweed; Rate 250 g/ha", "value": 100}, {"measurement": "Plant response rating, Itchgrass", "setting": "itchgrass; [4]", "value": 0}, {"measurement": "Plant response rating, Itchgrass", "setting": "itchgrass; [5]", "value": 0}, {"measurement": "Plant response rating, Itchgrass", "setting": "itchgrass; [6]", "value": 40}, {"measurement": "Plant response rating, Itchgrass", "setting": "itchgrass; [7]", "value": 80}, {"measurement": "Plant response rating, Itchgrass", "setting": "itchgrass; Rate 250 g/ha", "value": 100}, {"measurement": "Plant response rating, Jointed goatgra", "setting": "jointed goatgrass; [8]", "value": 65}, {"measurement": "Jointed goatgra plant response rating (0 to 100 scale)", "setting": "jointed goatgrass; Rate 250 g/ha", "value": 80}, {"measurement": "Plant response rating, Jointed goatgra", "setting": "jointed goatgrass; [9]", "value": 90}, {"measurement": "Plant response rating, Tall Mallow", "setting": "tall mallow; [4]", "value": 0}, {"measurement": "Plant response rating, Tall Mallow", "setting": "tall mallow; [5]", "value": 0}, {"measurement": "Tall Mallow plant response rating", "setting": "tall mallow; [6]", "value": 50}, {"measurement": "Tall Mallow plant response rating", "setting": "tall mallow; [7]", "value": 90}, {"measurement": "Plant response rating, Tall Mallow", "setting": "tall mallow; Rate 250 g/ha", "value": 100}, {"measurement": "Plant response rating, Barley (winter)", "setting": "winter barley; Rate 62 g/ha", "value": 20}, {"measurement": "Plant response rating, Barley (winter)", "setting": "winter barley; [1]", "value": 0}, {"measurement": "Barley (winter) plant response rating", "setting": "winter barley; [2]", "value": 10}, {"measurement": "Plant response rating, Barley (winter)", "setting": "winter barley; [3]", "value": 20}, {"measurement": "Plant response rating, Blk nightshade", "setting": "black nightshade; [8]", "value": 70}, {"measurement": "Blk nightshade plant response rating (0 to 100 scale)", "setting": "black nightshade; Rate 250 g/ha", "value": 95}, {"measurement": "Plant response rating, Blk nightshade", "setting": "black nightshade; [9]", "value": 95}, {"measurement": "Plant response rating, Kochia", "setting": "kochia; Rate 62 g/ha", "value": 20}, {"measurement": "Plant response rating, Kochia", "setting": "kochia; [1]", "value": 60}, {"measurement": "Kochia plant response rating", "setting": "kochia; [2]", "value": 0}, {"measurement": "Plant response rating, Kochia", "setting": "kochia; [3]", "value": 20}, {"measurement": "Plant response rating, I. Ryegrass", "setting": "Italian ryegrass; Rate 62 g/ha", "value": 50}, {"measurement": "Plant response rating, I. Ryegrass", "setting": "Italian ryegrass; [1]", "value": 0}, {"measurement": "I. Ryegrass plant response rating", "setting": "Italian ryegrass; [2]", "value": 70}, {"measurement": "Plant response rating, I. Ryegrass", "setting": "Italian ryegrass; [3]", "value": 60}, {"measurement": "Plant response rating, Com. groundsel", "setting": "common groundsel; [4]", "value": 0}, {"measurement": "Plant response rating, Com. groundsel", "setting": "common groundsel; [5]", "value": 100}, {"measurement": "Plant response rating, Com. groundsel", "setting": "common groundsel; [6]", "value": 90}, {"measurement": "Plant response rating, Com. groundsel", "setting": "common groundsel; [7]", "value": 90}, {"measurement": "Plant response rating, Com. groundsel", "setting": "common groundsel; Rate 250 g/ha", "value": 100}, {"measurement": "Plant response rating, Annual bluegras", "setting": "annual bluegrass; Rate 62 g/ha", "value": 95}, {"measurement": "Plant response rating, Annual bluegras", "setting": "annual bluegrass; [1]", "value": 20}, {"measurement": "Annual bluegras plant response rating", "setting": "annual bluegrass; [2]", "value": 10}, {"measurement": "Plant response rating, Annual bluegras", "setting": "annual bluegrass; [3]", "value": 80}, {"measurement": "Plant response rating, Green foxtail", "setting": "green foxtail; Rate 62 g/ha", "value": 60}, {"measurement": "Plant response rating, Green foxtail", "setting": "green foxtail; [1]", "value": 30}, {"measurement": "Green foxtail plant response rating", "setting": "green foxtail; [2]", "value": 60}, {"measurement": "Plant response rating, Green foxtail", "setting": "green foxtail; [3]", "value": 70}]}
